These results are taken from patent US9212204B2, “Treatment of rett syndrome using glycyl-L-2-methylprolyl-L-glutamic acid” (priority 2011, dated 2015).

One data set relates to MeCP2 knockout mice. In words: Nocturnal activity measurements. It counts as in vivo, mouse. The following applies: 20 mg/kg i.p. daily; after 6 weeks. On the procedure: For the survival measurements, the nocturnal activity analysis and the immunoblot analysis, G-2-MePE (synthesised Albany Molecular Research Inc. (Albany, N.Y.) and supplied by Neuren Pharmaceuticals Limited) is administered daily via intra-peritoneal injections (20 mg/kg, vehicle=saline, 0.01% BSA). The treatment starts at PI 5 and is maintained throughout the course of the experiments. For intracellular physiology experiments, the mice are injected daily with G-2-MePE (20 mg/kg body weight, vehicle=saline, 0.01% BSA) for 2 weeks, from P15 to P28-P32 when they are used for acute slice preparation. For optical imaging experiments, mice are injected with G-2-MePE (20 mg/kg body weight, vehicle=saline, 0.01% BSA) daily from the day of the lid suture to the day of imaging.
Spontaneous motor activity is measured by using an infrared beam-activated movement-monitoring chamber (Opto-Varimax-MiniA; Columbus Instruments, Columbus, Ohio). […] Movement is monitored during the normal 12-h dark cycle (7 p.m. to 7 a.m.). […]
MeCP2−/y mice develop Rett-like symptoms beginning at 4-6 weeks of age when they progressively become lethargic, develop gait ataxia and die between 10 and 12 weeks of age (Chen et al., 2001). Baseline locomotor activity is also recorded in mice after 6 weeks by counting nocturnal infrared beam crossing events within a caged area.

The test system of a further data set is RTT iPSC-derived neurons. Briefly: In vitro human model of Rett Syndrome, iPSC-derived neurons. Type of data set: cell-based. Also noted: glutamatergic synapse numbers: dose or concentration left out as unconfirmed. From the text:
To test the effects of G-2-MePE on neuronal morphology, we used an in vitro model of RTT described in Marchetto et al., A model for neural development and treatment of Rett syndrome using human induced pluripotent stem cells, Cell 143:527-539 (2010) (including supplemental information). The model uses induced pluripotent stem cells (iPSCs) generated from fibroblasts of human RTT patients carrying different MeCP2 mutations.
RTT fibroblasts (carrying 4 distinct MeCP2 mutations) and control fibroblasts are generated from explants of dermal biopsies. The shRNA against target MeCP2 gene is cloned into the LentiLox3.7 lentivirus vector (as described in Marchetto et al.). The fibroblasts are infected with retroviral reprogramming vectors (Sox2, Oct4, c-Myc and Klf4), Two days after infection, fibroblasts are plated on mitotically inactivated mouse embryonic fibroblasts with hESC medium. After 2 weeks, iPSC colonies that emerge from the background of fibroblasts are manually picked and transferred to feeder-free conditions on matrigel-coated dishes (BD) using embryonic stem cell culture media mTeSR™ (Stem Cell Technologies) and passaged manually. Gene expression profiles of the generated clones are measured using human genome Affymetrix Gene Chip™ arrays to confirm that reprogramming is successful.
To obtain neural progenitor cells (NPCs), embryoid bodies (EBs) are formed by mechanical dissociation of cell clusters and plating onto low-adherence dishes in hESC medium without FGF2 for 5-7 days. After that, EBs are plated onto poly-ornithine/laminin-coated dishes in DMEM/F12 plus N2 medium (serum-free supplement for growth and expression of post-mitotic cells). […]
Cells are fixed in 4% paraformaldehyde and permeabilized with 0.5% Triton-X100 in PBS. […] Fluorescent signals are detected using a Zeiss inverted microscope and images are processed with Photoshop CS3. The following primary antibodies are used: TRA-1-60, TRA-1-81 (1:100), Nanog and Lin28 (1:500), human Nestin (1:100), Tuj-1 (1:500), Map2 (1:100); meCP2 (1:1000; VGLUT1 (1:200), Psd95 (1:500), GFP (1:200), Sox1 (1:250), Mushasil (1:200) and me3H3K27 (1:500). Cell soma size is measured using suitable software (e.g. ImageJ) after identification of neurons using the Syn::EGFP™. The morphologies of neuronal dendrites and spines are studied from an individual projection of z-stacks optical sections and scanned at 0.5 um increments that correlate with the resolution valued at z-plane. Each optical section is the result of 3 scans at 500 lps followed by Kalman filtering. For synapse quantification, images are taken by a z-step of 1 um using Biorad radiance 2100™ confocal microscope. Synapse quantification is done blinded to genotype. Only VGLUT1 puncta along Map2-positive processes are counted. […]

Another data set concerns gastrointestinal cells. Particulars: cited from earlier work.

Non-standard residues stand in square brackets, D forms with d. Residues, ends and D or L forms follow the SMILES beside them. αMeP = C[C@@]1(C(=O)O)CCCN1

Take `C[C@@]1(C(=O)N[C@@H](CCC(=O)O)C(=O)O)CCCN1C(=O)CN` [Example G-2-MePE, Glycyl-L-2-methylprolyl-L-glutamic acid] (H-Gly-[αMeP]-Glu-OH): the “locomotor activity levels (nocturnal infrared beam crossing)” value in the data set on MeCP2 knockout mice is listed as “elevates”. Further, in the data set with RTT iPSC-derived neurons (1 week treatment), the “frequency and amplitude of spontaneous post-synaptic currents” value is “normalizes”; the “frequency of calcium transients” value was “normalizes”. Also, in the data set with RTT iPSC-derived neurons (all concentrations, 1 week), the VGLUT1 puncta number entry is reported as “increase”. Besides, the glutamatergic synapse numbers entry in the data set with RTT iPSC-derived neurons (for 1 week, vs non-treated RTT controls) was “significant increase”. For the same compound, in the data set with gastrointestinal cells, the “degradation by gastrointestinal cells” value is listed as “not degraded” and the “uptake by gastrointestinal cells” value is listed as “taken up”.
